Legend:
[1] = target: T1, NMDA receptor (N-methyl-D-aspartate) (Rattus norvegicus, UniProt P35439); test: Binding of 3H-5,7-dichlorokynurenic acid (displacement from rat cerebral membranes); conditions: buffer pH 7.4, on ice 30 minutes
T1 construct: isolated membrane material from rat cerebra; from tissue; host or cells: rat cerebrum, washed membranes
Protocol: (§1) The pharmacological activity of the compounds I according to the invention was investigated on isolated membrane material from rat cerebra. To do this, the membrane material was treated in the presence of the compounds according to the invention with the radiolabeled substances ^3 H-2-amino-3-hydroxy-5-methyl-4-isoxazolepropionic acid (^3 H-AMPA) and ^3 H-5,7-dichlorokynurenic acid, the latter binding to specific receptors (AMPA receptor and NMDA receptor (N-methyl-D-aspartate)respectively). The radioactivity of the treated membranes was subsequently measured by scintillation counting. The amounts of bound ^3 H-AMPA and ^3 H-5,7-dichlorokynurenic acid, or in each case the amounts of these radiolabeled substances displaced, were determined from the bound radioactivity. The dissociation constant KI (I=inhibitor) resulting from this, which is a measure of the displacing effect of the agent according to the invention, was found by iterative nonlinear regression analysis using the Statistical Analysis System (SAS) on an IBM computer, similar to the Ligand program of P. J. Munson or D. Rodbard (Analytical Biochem. 107, 220 (1980), Ligand: Versatile Computerized Approach for Characterization of Ligand Binding Systems).
2. Binding of ^3 H-5,7-dichlorokynurenic acid
To prepare the membrane material, freshly removed rat cerebra were homogenized together with about 10 times the volume of a buffer solution A' composed of 50 mM TRIS-HCl and 10 mM EDTA, pH 7.4. The suspension was centrifuged at 48,000 g for 20 minutes. After removal of the supernatant liquid, the membrane material present in the sediment was washed twice by suspension in buffer solution A' and subsequent centrifugation for 20 minutes each time and suspension. After resuspension of the membranes in buffer solution A' and freezing in liquid nitrogen, the suspension was thawed again at 37° C. and, after another wash step, incubated at 37° C. for 15 minutes. The protein material was subsequently washed by centrifugation and suspension four times and was stored at -70° C. until used.
For the binding assay, the protein material was thawed at 37° C. and washed twice by centrifugation at 48,000 g (20 minutes) followed by suspension in a buffer solution B' composed of 50 mM TRIS-HCl, pH 7.4. Subsequently 0.15 mg of membrane material, 0.3 μCi of ^3 H-5,7-dichlorokynurenic acid (16 Ci/mmol) and compound I were dissolved in 1 ml of buffer solution B' and incubated on ice for 30 minutes. The incubated solution was centrifuged at 150,000 g for 2 minutes. After removal of the supernatant liquid, the sediments were suspended twice in 1.5 ml of cold buffer solution B' each time. After the radioactivity of the ^3 H-5,7-dichlorokynurenic acid bound to the membranes in the sediment had been measured, the KI was found by subjecting the displacement plots to regression analysis.

AMPA receptor = test: Binding of 3H-AMPA (displacement from rat cerebral membranes); conditions: buffer pH 7.1, on ice 60 minutes
Protocol: as §1
1. Binding of ^3 H-2-amino-3-hydroxy-5-methyl-4-isoxanolpropionic acid (^3 H-AMPA)
To prepare the membranes, freshly removed rat cerebra were homogenized together with about 15 times the volume of a buffer solution A composed of 30 mM α,α,α-tris(hydroxymethyl)methylamine hydrochloride (TRIS-HCl) and 0.5 mM ethylenediaminetetraacetic acid (EDTA), pH 7.4, using an Ultra-TURRAX. The suspension was centrifuged at 48,000 g for 20 min. After removal of the supernatant liquid, the proteinaceous membrane material present in the sediment was washed three times by suspension in buffer solution A and subsequent centrifugation at 48,000 g for 20 minutes each time. The membrane material was then suspended in 15 times the volume of buffer solution A and incubated at 37° C. for 30 minutes. The protein material was subsequently washed twice by centrifugation and suspension and stored at -70° C. until used.
For the binding assay, the protein material was thawed at 37° C. and washed twice by centrifugation at 48,000 g (20 minutes) followed by suspension in a buffer solution B composed of 50 mM TRIS-HCl, 0.1 M potassium thiocyanate and 2.5 mM calcium chloride, pH 7.1. Subsequently 0.25 mg of membrane material, 0.1 μCi of ^3 H-AMPA (60 Ci/mmol) and compound I were dissolved in 1 ml of buffer solution B and incubated on ice for 60 minutes. The incubated solution was filtered through a CF/B filter (from Whathman) which had previously been treated with a 0.5% strength aqueous solution of polyethyleneimine for at least 2 hours. The filtrate [sic] was then washed with 5 ml of cold buffer solution B in order to separate bound and free ^3 H-AMPA from one another. After the radioactivity of the bound ^3 H-AMPA in the membrane material had been measured by scintillation counting, the KI was determined by subjecting the displacement plots to regression analysis.

Row | Structure (SMILES) | Ki [1] [nM] | Ki (AMPA receptor) [nM]
1 | COC(=O)CCc1nc2c3cc(C)c(C)cc3[nH]c(=O)n2n1 [Example 4, Methyl 3-(8,9-dimethyl-1,2,4-triazolo[1,5-c]quinazolin-5-on-2)propionate] | 1750 | –
2 | O=C(O)CCCc1nc2c3ccc([N+](=O)[O-])cc3[nH]c(=O)n2n1 [Example 13] | 500 | 3400
3 | O=C(O)CCc1nc2c3cc([N+](=O)[O-])c([N+](=O)[O-])cc3[nH]c(=O)n2n1 [Example 15] | 400 | 1000
4 | O=C(O)CCc1nc2c3ccc(C(F)(F)F)cc3[nH]c(=O)n2n1 [Example 18] | 650 | 600
5 | O=C(O)CCc1nc2c3cc4ccccc4cc3[nH]c(=O)n2n1 [Example 20] | 400 | 600
6 | Cc1cc2[nH]c(=O)n3nc(CCC(=O)NCc4ccccc4)nc3c2cc1C [Example 21, 3-(8,9-Dimethyl-1,2,4-triazolo[1,5-c]quinazolin-5-on-2)propionic acid benzylamide] | 800 | –

Compounds with a lower Ki [1], results first:

Row | Ki [1] [nM] | Ki (AMPA receptor) [nM] | Structure (SMILES)
7 | 300 | 700 | O=C(O)CCc1nc2c3ccc4ccccc4c3[nH]c(=O)n2n1 [Example 19]
8 | 170 | 600 | O=C(O)CCc1nc2c3ccc([N+](=O)[O-])cc3[nH]c(=O)n2n1 [Example 14]
9 | 100 | – | Cc1cc2[nH]c(=O)n3nc(CCC(=O)O)nc3c2cc1C [Example 16]
